Assay results reported in patent US12583826B2, “[(1,5-diphenyl-1H-1,2,4-triazol-3-yl)oxy]acetic acid derivatives and salts thereof, crop protection compositions comprising them, methods for producing them and use thereof as safeners” (Bayer Aktiengesellschaft, priority 2019, dated 2026).

Experiments:
[1] = system: summer wheat (TRZAS; cv. Triso); test: Relative action (efficacy code): reduction of damage by mesosulfuron-methyl on summer wheat; assay type: in vivo; set-up: key: 0: no reduction in damage (appearance corresponding to the herbicide control); 1: slight reduction in damage; 2: distinct reduction in damage; 3: significant reduction in damage; 4: complete reduction in damage (appearance corresponding to the untreated control); conditions: then mesosulfuron-methyl 40-60 g/ha, visual, 9-13 days after application
Method: 2.3 Relative Action of Selected Compounds of the Invention Using the Example of Reduction of Damage by Mesosulfuron-Methyl on Summer Wheat (TRZAS) The seeds of the crop plants to be treated are laid out in sandy loam in plastic pots (diameter ˜4 cm), covered with soil and grown in a greenhouse under good conditions for germination and growth. The trial plants were treated at the early leaf stage (BBCH10—BBCH12). In the course of this, the inventive compounds of the general formula (I) formulated in the form of wettable powders (WP) were sprayed onto the above-ground parts of the plants as an aqueous suspension with a water application rate corresponding to 800 l/ha with addition of wetting agent (e.g. 0.2% Genapol-LRO or 0.2% Mero) in the specified dose. This was followed by the application of the herbicide. For this purpose, mesosulfuron-methyl, formulated in the form of water-dispersible granules (WG), was sprayed onto the above-ground parts of the plants in the form of an aqueous dispersion with a water application rate corresponding to 800 l/ha with addition of wetting agent (e.g. 0.2% Genapol-LRO or 1 l/ha Biopower) in a dose of 40-60 g/ha. The dose of the herbicide was chosen here such that it causes visually apparent damage (min. 30%, max. 75%) compared to untreated crop plants at the evaluation time on a control group of crop plants without safener treatment that were included in the same trial. After application, the plants were cultivated under good growth conditions in a greenhouse. 9-13 days after application, the efficacy of the test compounds was assessed visually. For this purpose, the appearance of the plants treated with the test compound and herbicide was compared to the corresponding herbicide controls (without safener; with clearly visible damage) and the untreated controls (without damage). The damage-reducing effect of the test compounds was expressed here in graded efficacy codes according to the following scheme: • 0: no reduction in damage (appearance corresponding to the herbicide control) • 1: slight reduction in damage • 2: distinct reduction in damage • 3: significant reduction in damage • 4: complete reduction in damage (appearance corresponding to the untreated control) The trials show clear efficacy of the substances of the invention with regard to the reduction in damage to the summer wheat crop plant (TRZAS; cv. Triso) caused by the herbicide mesosulfuron-methyl: […]

[2] = system: summer barley (HORVS; cv. Montoya); test: Relative action (efficacy code): reduction of damage by mesosulfuron-methyl on summer barley; assay type: in vivo; set-up: key: 0: no reduction in damage (appearance corresponding to the herbicide control); 1: slight reduction in damage; 2: distinct reduction in damage; 3: significant reduction in damage; 4: complete reduction in damage (appearance corresponding to the untreated control); conditions: then mesosulfuron-methyl 40-60 g/ha, visual, 9-13 days after application
Method: 2.4 Relative Action of Selected Compounds of the Invention Using the Example of Reduction of Damage by Mesosulfuron-Methyl on Summer Barley (HORVS) The seeds of the crop plants to be treated are laid out in sandy loam in plastic pots (diameter ˜4 cm), covered with soil and grown in a greenhouse under good conditions for germination and growth. The trial plants were treated at the early leaf stage (BBCH10—BBCH12). In the course of this, the inventive compounds of the general formula (I) formulated in the form of wettable powders (WP) were sprayed onto the above-ground parts of the plants as an aqueous suspension with a water application rate corresponding to 800 l/ha with addition of wetting agent (e.g. 0.2% Genapol-LRO or 0.2% Mero) in the specified dose. This was followed by the application of the herbicide. For this purpose, mesosulfuron-methyl, formulated in the form of water-dispersible granules (WG), was sprayed onto the above-ground parts of the plants in the form of an aqueous dispersion with a water application rate corresponding to 800 l/ha with addition of wetting agent (e.g. 0.2% Genapol-LRC) or 1 l/ha Biopower) in a dose of 40-60 g/ha. The dose of the herbicide was chosen here such that it causes visually apparent damage (min. 30%, max. 75%) compared to untreated crop plants at the evaluation time on a control group of crop plants without safener treatment that were included in the same trial. After application, the plants were cultivated under good growth conditions in a greenhouse. 9-13 days after application, the efficacy of the test compounds was assessed visually. For this purpose, the appearance of the plants treated with the test compound and herbicide was compared to the corresponding herbicide controls (without safener; with clearly visible damage) and the untreated controls (without damage). The damage-reducing effect of the test compounds was expressed here separately for 2 repeats in graded efficacy codes according to the following scheme: • 0: no reduction in damage (appearance corresponding to the herbicide control) • 1: slight reduction in damage • 2: distinct reduction in damage • 3: significant reduction in damage • 4: complete reduction in damage (appearance corresponding to the untreated control) The trials show clear efficacy of the substances of the invention with regard to the reduction in damage to the summer barley crop plant (HORVS; cv. Montoya) caused by the herbicide mesosulfuron-methyl: […]

[3] = safener dose 100 (unit not given)
[4] = safener dose 500 (unit not given)

| SMILES | Efficacy of the safener (efficacy code) [1, 3] | Efficacy of the safener (efficacy code) ([2]; safener 100 g/ha) | Efficacy of the safener (efficacy code) [1, 4] | Efficacy of the safener (efficacy code) ([2]; safener 500 g/ha) |
| --- | --- | --- | --- | --- |
| COCCOC(=O)COc1nc(-c2ccc(F)cc2F)n(-c2ccc(F)cc2Cl)n1 [I.67-48] | 2 | 2 |  |  |
| O=C(O)COc1nc(-c2ccccc2)n(-c2c(F)cccc2F)n1 [I.3-43] | 2 | 2 | 2 | 2 |
| COC(=O)COc1nc(-c2ccc(F)cc2F)n(-c2ccc(F)cc2Cl)n1 [I.40-48] | 2 | 2 |  |  |
| O=C(O)COc1nc(-c2ccc(Cl)cc2F)n(-c2c(F)cccc2F)n1 [I.48-43] |  |  | 2 | 2 |
| CCOC(=O)COc1nc(-c2ccc(F)cc2F)n(-c2ccc(Cl)cc2F)n1 [I.41-49] | 2 | 2 |  |  |
| O=C(O)COc1nc(-c2ccc(F)cc2F)n(-c2c(F)cccc2F)n1 [I.42-43] | 2 | 2 | 2 | 2 |
| COC(=O)COc1nc(-c2c(F)cccc2F)n(-c2ccc(Cl)cc2F)n1 [I.55-49] | 2 | 2 | 2 | 2 |
| COC(=O)CCOC(=O)COc1nc(-c2ccc(Cl)cc2Cl)n(-c2ccc(Cl)cc2F)n1 [I.61-49, Methyl 3-(2-{[1-(4-chloro-2-fluorophenyl)-5-(2,4-dichlorophenyl)-1H-1,2,4-triazol-3-yl]oxy}acetoxy)propanoate] | 2 | 2 |  |  |
| O=C(COc1nc(-c2ccc(F)cc2F)n(-c2ccc(Cl)cc2F)n1)OCC1CCOC1 (stereo not drawn) [I.63-49] | 2 | 2 |  |  |
